Assay results as given in paper PMC10748079, “Discovery of Potent Indolyl-Hydrazones as Kinase Inhibitors for Breast Cancer: Synthesis, X-ray Single-Crystal Analysis, and In Vitro and In Vivo Anti-Cancer Activity Evaluation” (Pharmaceuticals, 2023).
“And” between values parts separate entries of the source, which are not always exact repeats. Equal entries are not always repeated.

Tests used:
[1] = test system: MCF-7 breast cancer cells; assay: MTT cytotoxicity assay; assay type: cell-based; conditions: for IC50: MCF-7 cells, MTT, 48 h, mean ± SD of three independent values; for fold higher potency than reference drug staurosporine against MCF-7: versus staurosporine
Method: The National Research Institute in Egypt donated the breast cancer (MCF-7) cells, which were collected and cultured in RPMI-1640 medium L-glutamine (Lonza Verviers SPRL, Verviers, Belgium, cat#12-604F). The 10% fetal bovine serum (FBS; Sigma-Aldrich, St. Louis, MO, USA) and 1% penicillin-streptomycin (Lonza, Belgium) were given to each of the two cell lines.
All cells were cultured, following routine tissue culture work, in 5% CO2 humidified at 37 °C. Cells were exposed to compounds at concentrations of 0.01, 0.1, 1, 10, and 100 μM on the second day of culturing. After 48 h, cell viability was evaluated using the MTT solution (Promega, Madison, WI, USA). MTT dye (20 μL) was placed into each well, and the plate was then incubated for three hours. Absorbance was subsequently measured at 570 nm using the ELISA microplate reader (BIO-RAD, model iMark, Tokyo, Japan), and the percentage of cell viability was calculated, compared to control, as (mean absorbance of tested compound)/(mean absorbance in control) × 100. Finally, IC50 values were found using the nonlinear dose–response sigmoidal curve in GraphPad Prism 7 [39].

[2] = test system: MCF-7 cells; assay: Wound-healing assay (scratch assay); assay type: cell-based; conditions: MCF-7, treated at IC50 of compound, 48 h, mean ± SD
Method: The wound-healing test was mentioned in previous research. Six-well plates containing starvation media were filled with four […] MCF-7 cells per well, and the plates were subsequently incubated at 37 °C for the whole night. A sterile 1 mL pipette tip was used to generate a scratch of the cell monolayer once it was established the following day that the cells had adhered to the well and that cell confluence had reached 90%. Starvation media was used to clean the cells before they were removed from the plates. […] After 48 h, the medium was immediately changed to PBS, the wound gap was examined, and cells—both control and treated—were captured on camera with a digital camera attached to an Olympus microscope. The region where the wound closes was measured.

[3] = test system: MCF-7 cells; assay: Annexin V/PI staining flow cytometry (apoptosis/necrosis); assay type: cell-based; conditions: MCF-7, treated at IC50, 48 h
Method: (§1) Annexin V/PI staining and cell cycle analysis […] MCF-7 cells were added to 6-well culture plates, which were then placed in the incubator for the night. […] Following that, PBS was rinsed with ice-cold water before cells and media supernatants were gathered. The cells were then treated with “Annexin V-FITC solution (1:100) and propidium iodide (PI)” at a concentration of 10 µg/mL for 30 min in the dark after being suspended in […] of annexin-binding buffer solution, which was composed of 25 mM CaCl2, 1.4 M NaCl, and 0.1 M Hepes/NaOH, pH 7.4. Then, labeled cells were collected using the Cytoflex FACS system. The data were assessed using the cytExpert program.

[4] = test system: MCF-7 cells; assay: DNA content flow cytometry (cell cycle analysis); assay type: cell-based; conditions: MCF-7, treated at IC50, 48 h
Method: as §1

[5] = target: T1, AKT-1 (Homo sapiens, UniProt P31749); assay: Kinase inhibitory assay (ELISA kit); assay type: biochemical; conditions: average of three independent replicates; read-out: IC50 ± SD AKT-1
T1 construct: purchased Bioscience, USA #78038
Method: (§2) The following calculation was used to compute the proportion that chemicals inhibited autophosphorylation: […]. Using the GraphPad prism7 program, the IC50 was calculated using the curves of percentage inhibition of five concentrations of each chemical.

[6] = target: T2, CDK2 (Homo sapiens, UniProt P24941); assay: Kinase inhibitory assay (ELISA kit); assay type: biochemical; conditions: average of three independent replicates; read-out: IC50 ± SD CDK2
T2 construct: purchased Bioscience, USA #79599
Method: as §2

[7] = target: T3, EGFR (Homo sapiens, UniProt P00533); assay: Kinase inhibitory assay (ELISA kit); assay type: biochemical; conditions: average of three independent replicates; read-out: IC50 ± SD EGFR
T3 construct: purchased Bioscience, USA #40321
Method: as §2

[8] = target: T4, PI3K-α (Homo sapiens, UniProt P42336); assay: Kinase inhibitory assay (ELISA kit); assay type: biochemical
T4 construct: purchased Bioscience, USA #40639
Method: as §2

[9] = target: T5, PI3K-β (Homo sapiens, UniProt P42338); assay: Kinase inhibitory assay (ELISA kit); assay type: biochemical; conditions: average of three independent replicates; read-out: IC50 ± SD PI3K-β
T5 construct: purchased Bioscience, USA #79802
Method: as §2

[10] = target: T6, PI3K-δ (Homo sapiens, UniProt O00329); assay: Kinase inhibitory assay (ELISA kit); assay type: biochemical; conditions: average of three independent replicates; read-out: IC50 ± SD PI3K-δ
T6 construct: purchased Bioscience, USA #40628
Method: EGFR (catalog #40321), CDK2 (catalog #79599), AKT (catalog #78038), PI3K-α (catalog #40639), β (catalog #79802), and δ (catalog #40628) kinase inhibitions were conducted using an ELISA kit in accordance with the manufacturer instructions from Bioscience, USA. To assess the inhibitory potency of compound 5 against the kinase activity, kinase inhibitory tests were carried out. The following calculation was used to compute the proportion that chemicals inhibited autophosphorylation: […]. Using the GraphPad prism7 program, the IC50 was calculated using the curves of percentage inhibition of five concentrations of each chemical.

[11] = test system: Solid Ehrlich carcinoma (SEC); assay: In vivo antitumor activity in SEC-bearing mice; design: species or system Swiss albino mice; conditions: IP, 5 mg/kg; for solid tumor mass: SEC control 398.1 mg; for tumor proliferation inhibition (TIR%): TIR% = C − T/C × 100
Method: The Suez Canal University Research Ethics Committee gave the experimental procedure their seal of approval (approval number REC219/2023, Faculty of Science, Suez Canal University). The full, detailed methodology is supported in the Supplementary Materials.
Animals and tumor cell line
Adult female Swiss albino mice purchased from Theodor Bilharzia Research Institute, Giza, Egypt, with an average body weight of (18-23) g was used. Mice were housed under constant conditions of 12 h light/dark cycle in a […], with free access to standard laboratory mice food and water .All procedures related to care and maintenance of the animals were performed according to the international guiding principles for animal research and approved by Faculty of Science, Suez Canal University bioethics and animal ethics committee (Approval […]
Solid Ehrlich carcinoma (SEC) were got from the National Cancer Institute (Cairo University, Egypt). The tumor cell line was proliferated in mice through serial intraperitoneal (I.P.) transplantation of a volume of 0.2 mL physiological saline contains 1 × 10^6 viable cells for 24 h. SEC cells were collected 7 days after I.P. implantation. The harvested cells were diluted with saline to obtain a concentration of 5 × 10^6 viable SEC cells/mL. A volume of 0.2 mL saline contains 1 × 10^6 SEC cells that were I.P. implanted into each normal mouse. SEC cells (1 × 10^6 tumor cells/mouse) were implanted subcutaneously into the right thigh of the hind limb.
The experimental animals were randomly divided into four groups. Group 1 served as the normal saline control (5 mL/kg B.Wt., I.P.). Group 2 served as the SEC control (1 × 10^6 cells/mouse). Group 3 served as the compound-treated group (5 mg/kg B.Wt., I.P.).
Group 4 received the standard anticancer drug of Doxorubicin (DOX) (5 mg/kg BW, I.P.) and is considered as a reference control. Body weight and survival were recorded daily until the 24th day in both treated and control groups. At the end of experiment, the blood of each group was collected under light anesthesia for estimation of hematological and biochemical assays. The anesthetized animals were then sacrificed for evaluation of the antitumor activity and histopathological examination.
It includes tumor volume, weight, and tumor inhibition ration (TIR%). Time interval measurements of tumor volume using digital Vernier caliper (Tricle Brand, Shanghai, […]
China). Measure tumor length and width using clipper and then calculate tumor volume using formulations V = (L x W x W)/2, where V is tumor volume, W is tumor width, L is […]
tumor length. […]

T6 sequence (O00329 whole entry): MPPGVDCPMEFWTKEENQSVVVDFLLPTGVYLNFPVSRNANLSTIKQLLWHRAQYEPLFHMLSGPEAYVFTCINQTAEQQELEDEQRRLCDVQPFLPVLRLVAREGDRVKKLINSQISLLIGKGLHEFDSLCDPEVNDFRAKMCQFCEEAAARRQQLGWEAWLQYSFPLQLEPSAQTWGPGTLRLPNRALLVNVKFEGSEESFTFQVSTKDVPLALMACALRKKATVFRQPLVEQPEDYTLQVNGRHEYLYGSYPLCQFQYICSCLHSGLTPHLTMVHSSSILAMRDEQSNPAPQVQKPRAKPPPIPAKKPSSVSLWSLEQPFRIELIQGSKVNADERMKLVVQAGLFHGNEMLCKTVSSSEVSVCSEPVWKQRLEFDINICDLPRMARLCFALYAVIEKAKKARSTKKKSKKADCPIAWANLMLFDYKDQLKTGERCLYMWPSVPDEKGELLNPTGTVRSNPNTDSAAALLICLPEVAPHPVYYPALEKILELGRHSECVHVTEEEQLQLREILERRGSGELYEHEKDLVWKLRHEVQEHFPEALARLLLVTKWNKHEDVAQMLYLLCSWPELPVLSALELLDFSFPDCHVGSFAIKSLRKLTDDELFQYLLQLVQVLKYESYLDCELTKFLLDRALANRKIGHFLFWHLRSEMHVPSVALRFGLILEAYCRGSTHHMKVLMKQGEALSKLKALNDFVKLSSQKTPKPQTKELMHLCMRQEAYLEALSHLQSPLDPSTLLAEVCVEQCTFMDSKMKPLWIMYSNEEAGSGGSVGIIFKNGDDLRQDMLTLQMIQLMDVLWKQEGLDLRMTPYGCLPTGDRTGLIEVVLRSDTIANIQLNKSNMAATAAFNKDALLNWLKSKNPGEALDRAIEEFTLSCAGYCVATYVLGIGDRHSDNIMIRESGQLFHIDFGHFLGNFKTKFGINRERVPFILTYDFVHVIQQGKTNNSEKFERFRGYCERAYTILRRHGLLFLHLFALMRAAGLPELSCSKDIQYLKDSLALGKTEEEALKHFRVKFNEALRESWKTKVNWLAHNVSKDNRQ
T6 sequence (P27986 whole entry partner): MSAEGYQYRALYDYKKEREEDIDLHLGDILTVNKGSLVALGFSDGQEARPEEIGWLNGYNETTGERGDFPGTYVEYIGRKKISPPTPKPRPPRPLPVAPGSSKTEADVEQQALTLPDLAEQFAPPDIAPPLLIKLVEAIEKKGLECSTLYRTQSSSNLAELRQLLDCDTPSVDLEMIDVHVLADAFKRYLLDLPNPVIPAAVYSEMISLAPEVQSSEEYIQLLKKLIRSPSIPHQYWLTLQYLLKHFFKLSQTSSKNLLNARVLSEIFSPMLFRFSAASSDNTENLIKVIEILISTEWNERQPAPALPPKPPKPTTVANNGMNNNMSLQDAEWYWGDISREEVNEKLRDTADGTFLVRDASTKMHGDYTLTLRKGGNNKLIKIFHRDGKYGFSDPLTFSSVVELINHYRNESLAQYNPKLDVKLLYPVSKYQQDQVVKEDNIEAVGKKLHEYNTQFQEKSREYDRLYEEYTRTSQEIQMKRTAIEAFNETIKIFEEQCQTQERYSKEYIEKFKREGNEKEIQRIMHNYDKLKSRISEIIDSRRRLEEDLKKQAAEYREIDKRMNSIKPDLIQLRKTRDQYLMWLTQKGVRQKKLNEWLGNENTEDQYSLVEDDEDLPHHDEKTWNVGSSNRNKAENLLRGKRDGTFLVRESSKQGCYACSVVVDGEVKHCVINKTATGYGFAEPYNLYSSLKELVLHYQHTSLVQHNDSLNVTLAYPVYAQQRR
T4 sequence (P42336 whole entry): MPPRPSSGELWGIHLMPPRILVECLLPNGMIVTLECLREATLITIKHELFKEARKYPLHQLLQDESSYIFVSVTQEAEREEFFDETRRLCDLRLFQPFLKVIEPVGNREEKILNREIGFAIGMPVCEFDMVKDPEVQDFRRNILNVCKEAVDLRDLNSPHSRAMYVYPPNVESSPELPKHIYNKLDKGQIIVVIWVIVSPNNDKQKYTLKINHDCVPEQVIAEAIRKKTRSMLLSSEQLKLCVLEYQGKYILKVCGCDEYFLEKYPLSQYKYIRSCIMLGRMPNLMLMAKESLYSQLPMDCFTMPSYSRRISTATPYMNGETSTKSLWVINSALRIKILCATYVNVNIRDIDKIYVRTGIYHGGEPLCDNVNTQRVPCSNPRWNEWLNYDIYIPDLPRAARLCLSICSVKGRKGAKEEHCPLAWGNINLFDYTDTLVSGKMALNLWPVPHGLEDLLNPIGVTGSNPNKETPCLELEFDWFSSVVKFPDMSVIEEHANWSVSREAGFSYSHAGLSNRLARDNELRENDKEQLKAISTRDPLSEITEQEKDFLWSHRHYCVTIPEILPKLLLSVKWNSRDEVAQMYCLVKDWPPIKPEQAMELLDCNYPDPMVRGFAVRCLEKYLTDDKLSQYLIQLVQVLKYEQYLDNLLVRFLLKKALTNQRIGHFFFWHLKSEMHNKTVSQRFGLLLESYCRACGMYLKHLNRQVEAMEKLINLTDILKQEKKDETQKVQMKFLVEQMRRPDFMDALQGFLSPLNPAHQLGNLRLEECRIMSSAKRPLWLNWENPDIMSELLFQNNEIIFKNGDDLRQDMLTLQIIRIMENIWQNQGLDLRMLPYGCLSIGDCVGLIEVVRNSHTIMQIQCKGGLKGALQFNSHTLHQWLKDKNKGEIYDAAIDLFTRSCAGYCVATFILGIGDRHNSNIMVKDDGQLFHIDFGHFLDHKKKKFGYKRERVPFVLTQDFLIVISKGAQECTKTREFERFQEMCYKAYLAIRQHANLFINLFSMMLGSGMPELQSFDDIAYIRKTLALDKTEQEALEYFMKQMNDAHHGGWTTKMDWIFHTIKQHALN
T4 sequence (P27986 whole entry partner): as the sequence (P27986 whole entry partner) above
T5 sequence (P42338 whole entry): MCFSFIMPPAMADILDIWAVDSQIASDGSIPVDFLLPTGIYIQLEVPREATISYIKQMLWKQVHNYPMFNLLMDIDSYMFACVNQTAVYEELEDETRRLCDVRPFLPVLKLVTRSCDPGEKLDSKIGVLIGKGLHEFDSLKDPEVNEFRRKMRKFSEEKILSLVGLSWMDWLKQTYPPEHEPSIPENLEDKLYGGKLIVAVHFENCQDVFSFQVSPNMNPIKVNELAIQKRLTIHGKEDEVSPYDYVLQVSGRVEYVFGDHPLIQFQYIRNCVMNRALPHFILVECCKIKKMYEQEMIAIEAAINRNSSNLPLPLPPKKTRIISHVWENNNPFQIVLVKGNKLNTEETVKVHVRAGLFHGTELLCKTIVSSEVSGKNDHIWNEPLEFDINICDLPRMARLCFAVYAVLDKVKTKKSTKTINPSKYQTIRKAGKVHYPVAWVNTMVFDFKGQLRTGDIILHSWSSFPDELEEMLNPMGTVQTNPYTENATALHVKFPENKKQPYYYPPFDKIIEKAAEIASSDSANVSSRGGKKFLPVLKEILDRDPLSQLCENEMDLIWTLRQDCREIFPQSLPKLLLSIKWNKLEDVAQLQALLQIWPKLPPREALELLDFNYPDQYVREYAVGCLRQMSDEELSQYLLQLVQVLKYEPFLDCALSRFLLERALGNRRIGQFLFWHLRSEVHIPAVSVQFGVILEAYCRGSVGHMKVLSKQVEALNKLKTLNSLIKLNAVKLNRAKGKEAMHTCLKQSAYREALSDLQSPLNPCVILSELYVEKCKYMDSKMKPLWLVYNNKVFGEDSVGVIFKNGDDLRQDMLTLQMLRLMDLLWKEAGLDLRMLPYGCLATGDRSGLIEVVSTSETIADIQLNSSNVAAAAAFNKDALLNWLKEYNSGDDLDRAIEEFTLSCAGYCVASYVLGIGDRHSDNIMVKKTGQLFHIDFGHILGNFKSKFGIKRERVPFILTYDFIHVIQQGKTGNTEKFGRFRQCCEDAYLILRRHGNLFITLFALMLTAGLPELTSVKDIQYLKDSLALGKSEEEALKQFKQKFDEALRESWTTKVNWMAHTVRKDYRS
T5 sequence (P27986 whole entry partner): as the sequence (P27986 whole entry partner) above
T1 sequence (P31749 whole entry): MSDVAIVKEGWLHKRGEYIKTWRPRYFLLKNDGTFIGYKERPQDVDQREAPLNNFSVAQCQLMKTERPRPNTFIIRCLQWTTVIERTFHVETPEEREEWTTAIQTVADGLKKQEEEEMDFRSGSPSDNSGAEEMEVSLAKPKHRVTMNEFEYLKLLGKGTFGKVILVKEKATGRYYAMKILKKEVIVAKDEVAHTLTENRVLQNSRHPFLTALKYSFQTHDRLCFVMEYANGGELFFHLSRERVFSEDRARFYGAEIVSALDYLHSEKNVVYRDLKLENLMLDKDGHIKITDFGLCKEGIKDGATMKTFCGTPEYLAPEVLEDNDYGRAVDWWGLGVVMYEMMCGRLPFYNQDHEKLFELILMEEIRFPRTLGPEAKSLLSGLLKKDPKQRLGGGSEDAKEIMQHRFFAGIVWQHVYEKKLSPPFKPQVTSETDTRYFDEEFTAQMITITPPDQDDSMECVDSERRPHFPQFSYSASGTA

| SMILES | melting point | IC50 ([1]; Homo sapiens, MCF7, 48 h) | %Closure, MCF-7 (wound closure) [2] | Annexin V/PI Staining Early (early apoptosis) [3] | Annexin V/PI Staining Late (late apoptosis) [3] | Annexin V/PI Staining Necrosis [3] | Annexin V/PI Staining Total (total cell death) [3] | DNA Content %G0-G1 [4] | DNA Content %G2/M [4] | DNA Content %Pre-G1 [4] | DNA Content %S [4] | other results |
| --- | --- | --- | --- | --- | --- | --- | --- | --- | --- | --- | --- | --- |
| CCOC(=O)c1[nH]c2ccccc2c1/C=N/n1c(-c2cc3ccccc3[nH]2)n[nH]c1=S [Compound 8, Ethyl (E)-3-(((3-(1H-indol-2-yl)-5-thioxo-1,5-dihydro-4H-1,2,4-triazol-4-yl)imino)methyl)-1H-indole-2-carboxylate] |  | 4.38 ± 0.23 µM | 60.74% and 60.7% | 2.27% | 13.45% | 8.66% | 24.4% and 24.38% | 47.10% | 6.57% | 24.38% | 46.31% | fold higher potency than reference drug staurosporine against MCF-7 [1]: up to 1.9 fold; apoptosis (apoptosis ratio, early + late) [3]: 15.72% |
| CCOC(=O)c1[nH]c2ccccc2c1/C=N/Nc1ccc([N+](=O)[O-])cc1[N+](=O)[O-] [Compound 12, Ethyl (E)-3-((2-(2,4-dinitrophenyl)hydrazineylidene)methyl)-1H-indole-2-carboxylate] |  |  | 51.85% and 51.8% | 4.59% | 17.44% | 15.02% | 37% and 37.05% | 59.33% | 2.55% | 37.05% | 38.10% | IC50 ([1]; Homo sapiens, MCF7): 7.03 ± 0.37 µM |
| CCOC(=O)c1[nH]c2ccccc2c1/C=N/N=C/c1c(C(=O)OCC)[nH]c2ccccc12 [Compound 5, Diethyl 3,3’-((1E,1’E)-hydrazine-1,2-diylidenebis(methaneylylidene))bis(1H-indole-2-carboxylate)] |  | 2.73 ± 0.14 µM | 48.88% and 48.8% | 7.11% | 22.24% | 9.91% | 39.26% | 39.07% | 4.74% | 39.26% | 56.2% and 56.19% | fold higher potency than reference drug staurosporine against MCF-7 [1]: 3 fold; apoptosis (apoptosis ratio, early + late) [3]: 29.35%; IC50 [5]: 0.602 ± 0.03 µM; IC50 [6]: 0.156 ± 0.01 µM; IC50 [7]: 0.058 ± 0.029 µM; IC50 ([8]; average of three independent replicates, read-out: IC50 ± SD PI3K-α): 1.73 ± 0.1 µM; fold higher potency than LY294002 against PI3K-α ([8]; versus LY294002): 4.92 fold; IC50 [9]: 2.27 ± 0.11 µM; IC50 [10]: 2.68 ± 0.15 µM; tumor volume [11]: 56.4 mm^3; solid tumor mass [11]: 126.5 mg; tumor proliferation inhibition (TIR%) [11]: 46.9% |
| CCOC(=O)c1[nH]c2ccccc2c1C=O [Compound 1, ethyl 3-formyl-1H-indole-2-carboxylate] |  | 19.7 ± 2.31 µM |  |  |  |  |  |  |  |  |  |  |
| O=c1cc(N2CCOCC2)oc2c(-c3ccccc3)cccc12 [LY294002, reference compound] |  |  |  |  |  |  |  |  |  |  |  | IC50 [10]: 0.85 ± 0.05 µM |
| CCOC(=O)c1[nH]c2ccccc2c1/C=N/NC(N)=O [Compound 6, Ethyl (E)-3-((2-carbamoylhydrazineylidene)methyl)-1H-indole-2-carboxylate] | 285 to 286 °C | 10.2 ± 0.53 µM |  |  |  |  |  |  |  |  |  | IC50 [1]: 9.42 ± 0.57 µM |
| O=c1[nH]cc(F)c(=O)[nH]1 [Compound 5-FU, 5-FU, reference compound] |  |  |  |  |  |  |  |  |  |  |  | tumor volume [11]: 43.7 mm^3; solid tumor mass [11]: 110 mg; tumor proliferation inhibition (TIR%) [11]: 58.8% |

Continued, in another order:

| melting point | SMILES | IC50 ([1]; Homo sapiens, MCF7, 48 h) | %Closure, MCF-7 (wound closure) [2] | Annexin V/PI Staining Early (early apoptosis) [3] | Annexin V/PI Staining Late (late apoptosis) [3] | Annexin V/PI Staining Necrosis [3] | Annexin V/PI Staining Total (total cell death) [3] | DNA Content %G0-G1 [4] | DNA Content %G2/M [4] | DNA Content %Pre-G1 [4] | DNA Content %S [4] | other results |
| --- | --- | --- | --- | --- | --- | --- | --- | --- | --- | --- | --- | --- |
| 229 to 230 °C | CCOC(=O)c1[nH]c2ccccc2c1/C=N/NC(N)=S [Compound 3, Ethyl (E)-3-((2-carbamothioylhydrazineylidene)methyl)-1H-indole-2-carboxylate] | 9.42 ± 0.57 µM |  |  |  |  |  |  |  |  |  | IC50 [1]: 10.2 ± 0.53 µM |
| 270 to 271 °C | CCOC(=O)c1[nH]c2ccccc2c1/C=N/Nc1ccc([N+](=O)[O-])cc1 [Compound 10, Ethyl (E)-3-((2-(4-nitrophenyl)hydrazineylidene)methyl)-1H-indole-2-carboxylate] | 25.4 ± 1.54 µM |  |  |  |  |  |  |  |  |  |  |
